Calls of active or inactive are those of the source. No cut-off for these calls is given here.
Assays:
Relaxin-3 receptor 2 [1] = target: T1, Relaxin-3 receptor 2 (Homo sapiens, UniProt Q8TDU9); test: Agonist activity at human RXFP4 expressed in CHOK1 cells assessed as inhibition of forskolin-stimulated intracellular cAMP accumulation preincubated for 30 mins followed by forskolin-stimulation and measured after 30 mins by HTRF assay relative to relaxin-3; type: functional, cell-based
Relaxin-3 receptor 2 [2] = target: T1, Relaxin-3 receptor 2; test: Agonist activity at human RXFP4 expressed in CHOK1 cells assessed as inhibition of forskolin-stimulated intracellular cAMP accumulation preincubated for 30 mins followed by forskolin-stimulation and measured after 30 mins by HTRF assay; type: functional, cell-based
Relaxin-3 receptor 1 = target: T2, Relaxin-3 receptor 1 (Homo sapiens, UniProt Q9NSD7); test: Agonist activity at human RXFP3 expressed in CHOK1 cells assessed as inhibition of forskolin-stimulated intracellular cAMP accumulation preincubated for 30 mins followed by forskolin-stimulation and measured after 30 mins by HTRF assay; type: functional, cell-based
T2 sequence (Q9NSD7 whole entry): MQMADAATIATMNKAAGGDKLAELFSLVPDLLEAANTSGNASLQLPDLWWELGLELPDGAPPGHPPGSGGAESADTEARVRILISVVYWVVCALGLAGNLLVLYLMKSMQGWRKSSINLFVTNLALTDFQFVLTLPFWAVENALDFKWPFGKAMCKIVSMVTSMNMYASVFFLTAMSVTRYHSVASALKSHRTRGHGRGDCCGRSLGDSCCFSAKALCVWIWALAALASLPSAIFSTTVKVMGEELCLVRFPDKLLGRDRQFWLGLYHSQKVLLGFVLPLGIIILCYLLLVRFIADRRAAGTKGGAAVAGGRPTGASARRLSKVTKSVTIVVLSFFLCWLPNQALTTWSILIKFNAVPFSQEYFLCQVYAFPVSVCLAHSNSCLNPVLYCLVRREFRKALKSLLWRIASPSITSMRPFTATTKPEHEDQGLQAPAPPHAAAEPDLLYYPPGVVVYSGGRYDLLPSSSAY

[3] = target: T3, Relaxin-3 receptor 1 (Homo sapiens) (UniProt Q9NSD7); test: Agonist activity at human RXFP3 expressed in CHOK1 cells assessed as inhibition of forskolin-stimulated intracellular cAMP accumulation preincubated for 30 mins followed by forskolin-stimulation and measured after 30 mins by HTRF assay relative to relaxin-3; type: functional, cell-based
T3 sequence (whole entry): T2 sequence (Q9NSD7 whole entry)

[4] = target: T3, Relaxin-3 receptor 1 (Homo sapiens); test: Agonist activity at human RXFP3 expressed in CHOK1 cells assessed as induction of JNK phosphorylation at 5 uM by Western blot analysis; type: cell-based
Rattus norvegicus [5] = test: Induction of food intake in Sprague-Dawley rat at 1 umol, icv after 24 hrs (reference value: 24.1 +/- 2.7g); type: functional
Cricetulus griseus [6] = species on record: Cricetulus griseus; test: Induction of ERK1/2 phosphorylation CHOK1 cells at 5 uM by Western blot analysis
[7] = target: Relaxin-3 receptor 1/2 (Homo sapiens) (UniProt Q9NSD7+Q8TDU9); test: Agonist activity at human RXFP3/4 in human U2OS cells assessed as induction of beta-arrestin recruitment incubated for 1 hr by chemiluminescence based PathHunter beta-arrestin assay relative to relaxin-3; type: cell-based
Cricetulus griseus [8] = species on record: Cricetulus griseus; test: Induction of JNK phosphorylation CHOK1 cells at 5 uM by Western blot analysis
Cricetulus griseus [9] = species on record: Cricetulus griseus; test: Induction of p38 MAPK phosphorylation CHOK1 cells at 5 uM by Western blot analysis
[10] = target: T3, Relaxin-3 receptor 1 (Homo sapiens); test: Agonist activity at human RXFP3 expressed in CHOK1 cells assessed as induction of p38 MAPK phosphorylation at 5 uM by Western blot analysis; type: cell-based
Rattus norvegicus [11] = test: Induction of food intake in Sprague-Dawley rat at 1 umol, icv after 4 hrs (reference value: 2.5 +/- 0.6g); type: functional
Relaxin-3 receptor 2 [12] = target: T1, Relaxin-3 receptor 2; test: Agonist activity at human RXFP4 expressed in CHOK1 cell membranes assessed as stimulation of [35S]-GTPgammaS binding after 3 hrs by scintillation counting method; type: functional
Rattus norvegicus [13] = test: Induction of food intake in satiated Sprague-Dawley rat at 1 umol, icv after 0 to 2 hrs (reference value: 1.7 +/- 0.5g); type: functional
CHO-K1 [14] = test: Effect on total JNK protein levels in CHOK1 cells at 5 uM by Western blot analysis; type: ADME, cell-based, Cricetulus griseus; details: chinese hamster, cho-k1, 5 µM
[15] = target: T3, Relaxin-3 receptor 1 (Homo sapiens); test: Agonist activity at human RXFP3 expressed in CHOK1 cells assessed as induction of ERK1/2 phosphorylation at 5 uM by Western blot analysis; type: cell-based
CHO-K1 [16] = test: Effect on total ERK1/2 protein levels in CHOK1 cells at 5 uM by Western blot analysis; type: ADME, cell-based, Cricetulus griseus; details: chinese hamster, cho-k1, 5 µM
CHO-K1 [17] = test: Effect on total p38 MAPK protein levels in CHOK1 cells at 5 uM by Western blot analysis; type: ADME, cell-based, Cricetulus griseus; details: chinese hamster, cho-k1, 5 µM

T1 sequence (Q8TDU9 whole entry): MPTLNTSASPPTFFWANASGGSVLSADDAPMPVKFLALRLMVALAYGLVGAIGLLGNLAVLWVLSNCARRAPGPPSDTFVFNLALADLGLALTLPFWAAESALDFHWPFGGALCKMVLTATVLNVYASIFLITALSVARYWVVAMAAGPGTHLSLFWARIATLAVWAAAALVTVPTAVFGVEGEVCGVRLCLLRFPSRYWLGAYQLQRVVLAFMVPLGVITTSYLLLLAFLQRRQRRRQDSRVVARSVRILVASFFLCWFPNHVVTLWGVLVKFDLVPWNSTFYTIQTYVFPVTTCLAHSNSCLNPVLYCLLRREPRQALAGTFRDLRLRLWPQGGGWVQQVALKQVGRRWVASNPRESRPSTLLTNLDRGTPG
Relaxin-3 receptor 1/2 (Homo sapiens), sequence (Q8TDU9 whole entry, looked up, one chain of several): as the sequence (Q8TDU9 whole entry) above

Structure (SMILES)	Emax (Relaxin-3 receptor 2 [1])	EC50 (Relaxin-3 receptor 2 [2])	EC50 (Relaxin-3 receptor 1)	Emax [3]	Activity [4]	Activity (Rattus norvegicus [5])	Activity (Cricetulus griseus [6])	Emax [7]	Activity (Cricetulus griseus [8])	Activity (Cricetulus griseus [9])	Activity [10]	Activity (Rattus norvegicus [11])	EC50 (Relaxin-3 receptor 2 [12])	Activity (Rattus norvegicus [13])	Activity (CHO-K1 [14])	Activity [15]	Activity (CHO-K1 [16])	Activity (CHO-K1 [17])
COc1cc(C)c2[nH]cc(/C=N/NC(=N)NCCc3ccc(Cl)c(Cl)c3)c2c1	99 to 99.2%	58 nM																
Cc1cc(O)cc2c(/C=N/NC(=N)NCCc3ccc(Cl)c(Cl)c3)c[nH]c12	113%	4 nM	800 nM	77.7%														
CCc1cc(O)cc2c(/C=N/NC(=N)NCCc3ccc(Cl)cc3)c[nH]c12	100%	2 nM		105%	Active	35.3 g	inactive	79.2%	inactive	inactive	inactive	7.1 g	11 nM	3.5 g	Non-Toxic	Active	Non-Toxic	Non-Toxic
COc1cc(C)c2[nH]cc(/C=N/NC(=N)NCCc3ccc(Cl)cc3)c2c1	113%	100 nM	1300 nM	55.7%														
